pIC50: −log10 of the molar value. The source made the active and inactive calls. No cut-off for these calls is given here.

The subject of assay [1] is A549. The assay is described as follows: Antiproliferative activity against human A549 cells assessed as inhibition of cell proliferation.
Another assay concerns HeLa. In words: Antiproliferative activity against human HeLa cells assessed as inhibition of cell proliferation.
In the next assay the test system is MCF7. The assay is described as follows: Antiproliferative activity against human MCF7 cells assessed as inhibition of cell proliferation.
For the next assay, the system named is MDA-MB-231. The assay is described as follows: Antiproliferative activity against human MDA-MB-231 cells assessed as inhibition of cell proliferation.
Assay [2] deals with A549. In words: Antimetastatic activity in human A549 cells assessed as reduction in cell migration incubated for 24 hrs by wound healing assay. The class given is functional, cell-based. Conditions: dose 0.5-5 µM.
Assay [3] concerns A549. In words: Induction of cell cycle arrest in human A549 cells assessed as accumulation of cells at G2/M phase incubated for 24 hrs by flow cytometry analysis. In kind it is functional, cell-based. The settings on record: dose 0.5-5 µM. Background: In flow cytometry, cells or beads pass a laser one at a time.
In assay [4] the test system is A549. The assay is described as follows: Induction of cell cycle arrest in human A549 cells assessed as accumulation of cells in G2/M phase by measuring CDK1 level incubated for 24 hrs by Western blotting analysis. In kind it is functional, cell-based. The settings on record: dose 0.5-5 µM. (In western blotting, separated proteins are transferred to a membrane and probed.)

Assay [5] relates to A549. The assay is described as follows: Induction of cell cycle arrest in human A549 cells assessed as accumulation of cells in G2/M phase by measuring cyclin B1 level incubated for 24 hrs by Western blotting analysis. In kind it is functional, cell-based. Conditions: dose 0.5-5 µM.
Assay [6] relates to A549. In words: Induction of apoptosis in human A549 cells incubated for 72 hrs by Annexin V/PI staining based flow cytometry analysis. In kind it is functional, cell-based. Conditions: dose 0.5-5 µM.
Assay [7] deals with A549. The assay is described as follows: Induction of apoptosis in human A549 cells at 0.5 to 5 uM incubated for 72 hrs by Annexin V/PI staining based flow cytometry analysis (reference value: 17.35%). The class given is functional. Conditions: dose 0.5-5 µM.
Assay [8] concerns A549. The assay is described as follows: Induction of apoptosis in human A549 cells at 5 uM incubated for 72 hrs by Annexin V/PI staining based flow cytometry analysis relative to control. The class given is functional.
Assay [9] concerns A549. The assay is described as follows: Induction of apoptosis in human A549 cells assessed as downregulation of Bcl-2 expression incubated for 24 hrs by Western blot analysis. Conditions: dose 0.5-5 µM. The class given is functional, cell-based.
Assay [10] has as its system A549. The assay is described as follows: Induction of apoptosis in human A549 cells assessed as upregulation of Bax expression incubated for 24 hrs by Western blot analysis. In kind it is functional, cell-based. Conditions: dose 0.5-5 µM.
For assay [11], the system named is A549. In words: Induction of apoptosis in human A549 cells assessed as upregulation of PARP expression incubated for 24 hrs by Western blot analysis. In kind it is functional, cell-based. Conditions: dose 0.5-5 µM.
Assay [12] concerns A549. In words: Induction of apoptosis in human A549 cells assessed as upregulation of cleaved caspase 3 expression incubated for 24 hrs by Western blot analysis. In kind it is functional, cell-based. Conditions: dose 0.5-5 µM.
Assay [13] deals with A549. In words: Induction of apoptosis in human A549 cells assessed as increase in ROS level incubated for 24 hrs by DCFH-DA staining based fluorescence analysis. In kind it is functional, cell-based. Conditions: dose 0.5-5 µM.
Assay [14] has as its system A549. In words: Induction of apoptosis in human A549 cells assessed as induction of gammaH2AX expression at 0.5 uM incubated for 24 hrs by immunofluorescence analysis. In kind it is functional, cell-based.
Assay [15] concerns A549. In words: Induction of apoptosis in human A549 cells assessed as gammaH2AX foci formation incubated for 24 hrs by immunofluorescence analysis. The class given is functional, cell-based. Conditions: dose 0.5-5 µM.

Usually pIC50 stands for the IC50 on a negative log10 scale, so that one unit is a factor of ten. As to `O=C(CCCCCCC(=O)N1CCc2c([nH]c3ccccc23)C1)NO`, the pIC50 in the assay with A549 [1] was 5.64; in the assay with HeLa it was 6.37; in the assay on MCF7 it was 5.74; with MDA-MB-231 it was 3.71.
Turning to `CC(C)Cn1c2c(c3ccccc31)CCN(C(=O)CCCCCCC(=O)NO)C2`, the pIC50 in the assay on A549 [1] was 5.38; in the assay on HeLa, 5.22; in the assay with MCF7, 5.52; in the assay on MDA-MB-231, 5.77.
The matching figures for `O=C(CCCCCCC(=O)N1CCc2c(n(CC3CC3)c3ccccc23)C1)NO`: 5.57, 3.74, 5.92 and 5.68.
On to `CC(=O)N1CCc2c(n(CCCCCCC(=O)NO)c3ccccc23)C1`, for which the pIC50 was 5.96 with A549 [1], 5.22 with HeLa, 5.25 in the assay on MCF7 and 5.17 with MDA-MB-231. The Activity result was “Dose-dependent-effect” in the assay on A549 [2]; “Dose-dependent-effect” with A549 [3]; “Dose-dependent-effect” in the assay on A549 [4]; “Dose-dependent-effect” with A549 [5]; “Dose-dependent-effect” with A549 [6]; 24.17% with A549 [7]. Moreover, the Activity in the assay with A549 [8] is 43.95%; in the assay with A549 [9] it was “Dose-dependent-effect”; in the assay with A549 [10], “Dose-dependent-effect”; with A549 [11], “Dose-dependent-effect”; in the assay on A549 [12] it was “Dose-dependent-effect”; in the assay on A549 [13], “Dose-dependent-effect”. Moreover, the Activity entry with A549 [15] is “Dose-dependent-effect”. In the assay on A549 [14], the outcome was Active.
Consider `O=C(CCCCCCC(=O)Nc1ccccc1)NO` [VORINOSTAT], for which the Activity with A549 [8] was found to be 34.83%.

The record behind these values is ChEMBL document CHEMBL6083242, “Design and optimization of novel Tetrahydro-β-carboline-based HDAC inhibitors with potent activities against tumor cell growth and metastasis” (Bioorg Med Chem Lett, 2024).
